{
  "source": "patent US20120276064A1",
  "about": "“METHODS AND COMPOSITIONS FOR REJUVENATION AND EXPANSION OF STEM CELLS” (priority 2011, published 2012)",
  "key": {"[1]": {"tested_on": "myogenin protein expression in young MuSCs", "assay": "Myogenin immunofluorescence analysis of hydrogel-cultured MuSCs", "type": "cell-based, mouse", "conditions": "soft hydrogel, 10 μM, one week, compared to control", "experimental": "Myogenin immunofluorescence analysis. MuSCs from young mice were isolated and cultured on 12 kPa hydrogels with either 0.1% DMSO control or 10 μM SB202190. After one week of culture, cells were fixed with 0.5% paraformaldehyde in PBS. Fixed cells were blocked with 20% goat serum and 0.5% Triton X100 in PBS. Cells were stained with anti-myogenin antibody (Santa Cruz Biotechnology, Santa Cruz, Calif.) and then an AlexaFluor594-conjugated secondary antibody (Invitrogen). Nuclei were stained with Topro3 (Invitrogen)the Immunofluorescence images were acquired using a LSM510 laser-scanning confocal microscope (Carl Zeiss Microimaging) with a Plan NeoFluar 20x/0.75NA objective. Digital images were captured using LSM510 software. Images were composed and edited in Photoshop software (Adobe). Background was reduced and contrast was enhanced equivalently across all images of the same stain. Nuclear regions were identified by Topro3 staining using MetaMorph software (Molecular Devices, Sunnyvale, Calif.). Within each nuclear region, the myogenin intensity was integrated using MetaMorph software. Nuclear myogenin intensities from each condition were plotted in a log-scale histogram to establish a threshold defining myogenin-positive cells."}, "[2]": {"tested_on": "MuSCs transplanted into tibialis anterior muscle", "assay": "Transplantation of cultured MuSCs into irradiated NOD/SCID mice, engraftment by bioluminescence imaging", "type": "in vivo, mouse", "conditions": "for Improvement of transplantation function of MuSCs cultured on rigid hydrogels: young and old MuSCs, rigid (~10^6 kPa) hydrogel, 10 μM, one week, 100 cells transplanted", "experimental": "MuSC transplantation. MuSCs were transplanted immediately following FACS isolation or after collection from cell culture directly into the tibialis anterior muscle of recipient mice as previously described. Cells from GFP/Luciferase or Myf5^nLacZl+/Luciferase mice were transplanted into gender-matched, hindlimb-irradiated NOD/SCID (Jackson) mice. NOD/SCID (2-4 months of age, median 2 months) mice were anesthetized with ketamine (2.4 mg per mouse) and xylazine (240 μg per mouse) by intraperitoneal injection then were irradiated by a single dose of 18 Gy administered to the hindlimbs, with the rest of the body shielded in a lead jig. Transplantation was performed within three days post-irradiation. In syngeneic transplant studies, cells from old C57BL/6 mice were transplanted into gender-matched, littermate old C57BL/6 mice (Jackson) following culture for one week on soft hydrogels. Specifically, old C57BL/6 MuSCs were infected with a GFP/Luciferase lentivirus added at day 2 of culture for 24 hours. Recipient old C57BL/6 mice were acutely injured by a single 10 μl intramuscular injection of notexin (10 μg/ml; Latoxan, France) two days prior to cell transplantation, but were not irradiated. Freshly isolated or cultured cells were counted by hemocytometer and resuspended at desired cell concentrations in PBS with 2.5% goat serum and 1 mM EDTA. Cells were collected from hydrogel cultures by incubation with 0.5% trypsin in PBS for 2 min at 37° C. and counted using a hemocytometer. Cells were transplanted by intramuscular injection into the tibialis anterior muscle in a 10 μl volume.\nTissue histology. Recipient tibialis anterior muscle tissues were prepared for histology as previously described to analyze GFP expression. Transverse sections were incubated with anti-laminin (Millipore, Billerica, Calif.), anti-GFP (Invitrogen) antibodies, and/or anti-β-galactosidase (Abcam, Cambridge, Mass.) with appropriate secondary antibodies (Invitrogen). Nuclei were counter-stained with Hoechst 33342 (Invitrogen). Images were acquired with an AxioPlan2 epi-fluorescent microscope (Carl Zeiss Microimaging, Thornwood, N.Y.) with Plan NeoFluar 10×/0.30NA or 20×/0.75NA objectives (Carl Zeiss) and an ORCA-ER digital camera (Hamamatsu Photonics, Bridgewater, N.J.). Digital images were captured in OpenLab software (Improvision, Waltham, Mass.) and assembled in Photoshop software (Adobe, San Jose, Calif.) with consistent contrast adjustments across all images from the same stain.\nBioluminescence imaging. Bioluminescence imaging was performed using a Xenogen-100 system, as previously described. Briefly, mice were anesthetized under isofluorane and 100 μL luciferin (0.1 mmol/kg; Caliper LifeSciences, Hopkinton, Mass.) in PBS was administered by intraperitoneal injection. Following luciferin administration, images were acquired every minute for 15 min. Images acquired at 12 min post-luciferin injection were used for analysis. Digital images were recorded and analyzed using Living Image software (Caliper LifeSciences). Images were analyzed with a consistent region-of-interest (ROI) placed over each hindlimb to calculate a bioluminescence signal. A bioluminescence signal value of 80,000 photons/s was used to define a engraftment threshold, as this level corresponds to the histological detection of one or more GFP^+ myofiber (see FIG. 8A). BLI imaging was performed one month post-transplant unless otherwise stated.\nMuSC culture and treatment. Following isolation, MuSCs were pelleted and resuspended into myogenic cell culture medium containing DMEM/F10 (50:50), 15% FBS, 2.5 ng/ml bFGF, and 1% penicillin/streptomycin. MuSCs were seeded at 1000 cells per well (24-well plate size wells, 2.0 cm^2 surface area) on laminin-tethered hydrogels of either 12 kPa (soft) or ˜10^6 kPa (rigid) rigidities. Cells were maintained at 37° C. in 5% CO2. Media was changed daily. […]"}, "[3]": {"tested_on": "functional MuSCs", "assay": "Limiting dilution analysis and model prediction of functional MuSCs", "parameters": "species or system mouse", "excerpt": "Limiting dilution analysis and model prediction. To calculate the effective number of functional MuSCs in any transplanted cell population, the transplant engraftment efficiency was related to the number of cells transplanted (across a range of transplanted cell numbers) using an exponential stem-cell limiting dilution model:\n% engraftment=100%·[1-exp [(βsample)·(# cells transplantedsample)] [eqn. 1]\nwhere β is an exponential coefficient fit from experimental data. This model fit well to experimental data from a variety of cell conditions (R^2=0.89-1.00; see FIG. 16C). Using this model, the number of functional MuSCs (e.g. defined as equivalent to freshly isolated young MuSCs) within any given population can be calculated:\n# Functional MuSCssample=(βSample/βYng,Fresh)˜(# cellssample). [eqn. 2]\nThe number of functional MuSCs arising from the progeny of each MuSC initially seeded in the cell culture experiments can be predicted by taking into account the measured cell proliferation in culture (see FIG. 2D). The transplant engraftment percentage of the cell culture progeny from any starting MuSC cell number can be predicted using the measured cell proliferation data and the fit exponential model parameter β:\nPredicted % engraftment=100%·[1-exp [(βsample)·(starting cell #)·(proliferation fold-changesample)]]. [Eqn. 3]"}},
  "note": "Entries after “also recorded” stand apart in the source; their conditions may differ.",
  "data": [
    {"smiles": "Oc1ccc(-c2nc(-c3ccncc3)c(-c3ccc(F)cc3)[nH]2)cc1", "note": "[SB202190]", "values": [
      {"measurement": "Percentage of myogenin+ cells", "setting": "[1]", "result": "greatly diminished"},
      {"measurement": "Engraftment frequency for 100-cell transplants", "setting": "[2]; old MuSCs cultured one week on soft hydrogel with 10 μM, one month post-transplant", "result": 41, "unit": "%"},
      {"measurement": "Transplant engraftment frequency of the progeny of 10 old MuSCs", "setting": "[2]; old MuSCs one week on soft hydrogels + SB (~300 cells), one month post-transplant", "result": 79, "unit": "%"},
      {"measurement": "Extent of engraftment (BLI and histology) compared to freshly isolated MuSCs", "setting": "[2]; progeny of 10 old MuSCs after one week on soft hydrogels + SB, listed as SB", "result": "not as robust; also recorded: slightly reduced regenerative extent"},
      {"measurement": "Engraftment frequency for 100-cell transplants", "setting": "[2]; young MuSCs cultured one week on soft hydrogel with 10 μM, one month post-transplant", "result": 45, "unit": "%"},
      {"measurement": "Improvement of transplantation function of MuSCs cultured on rigid hydrogels", "setting": "[2]", "result": "does not support significant improvement"},
      {"measurement": "Improvement of transplantation function of MuSCs cultured on rigid hydrogels", "setting": "[2]; listed as SB", "result": "did not support a similar SB-mediated improvement"},
      {"measurement": "Proportion of functional MuSCs", "setting": "[3]; old MuSCs on soft hydrogels with SB treatment, limiting dilution model", "result": 9, "unit": "%"},
      {"measurement": "Predicted transplant engraftment of the culture progeny of 10 old MuSCs", "setting": "[3]; old MuSCs treated with SB, model prediction", "result": 76, "unit": "%"},
      {"measurement": "Increase in absolute number of functional stem cells relative to freshly isolated old MuSCs", "setting": "[3]; old MuSCs, soft hydrogel + SB, one week, mathematical modeling", "result": 7, "unit": "fold"},
      {"measurement": "Improvement in the proportion of functional MuSCs", "setting": "[3]; old MuSCs, soft hydrogel with vs without SB, limiting dilution model", "result": 10, "unit": "fold"}
    ]}
  ]
}
